Values of other authors in US11912734B2, “Solid-phase synthesis of oligonucleotides containing N6-(2-deoxy-alpha,beta-derythropentofuranosyl)-2,6-diamino-4-hydroxy-5-formamidopyrimidine (Fapy⋅dG)” (The Johns Hopkins University, priority 2020, dated 2024).

How the values were obtained:
hOGG1 = hOGG1 (Homo sapiens, UniProt O15527); settings: dC versus dA opposite the lesion
MutY = MutY (Escherichia coli, UniProt P17802); settings: relative to 8-OxodGuo:dA duplex; more rapid than from a dG:dA mispair
Fpg = Fpg (Escherichia coli, UniProt P05523); settings: Fapy·dG:dC versus Fapy·dG:dA
Sequence of Fpg (P05523 whole entry): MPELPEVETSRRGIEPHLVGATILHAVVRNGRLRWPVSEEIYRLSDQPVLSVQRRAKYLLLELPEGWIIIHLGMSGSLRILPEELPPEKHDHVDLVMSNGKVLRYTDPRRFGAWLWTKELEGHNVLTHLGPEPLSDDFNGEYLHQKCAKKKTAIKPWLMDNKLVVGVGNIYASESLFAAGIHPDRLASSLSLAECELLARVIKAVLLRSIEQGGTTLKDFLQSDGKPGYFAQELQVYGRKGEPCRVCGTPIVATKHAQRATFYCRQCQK

Sequence of MutY (P17802 whole entry): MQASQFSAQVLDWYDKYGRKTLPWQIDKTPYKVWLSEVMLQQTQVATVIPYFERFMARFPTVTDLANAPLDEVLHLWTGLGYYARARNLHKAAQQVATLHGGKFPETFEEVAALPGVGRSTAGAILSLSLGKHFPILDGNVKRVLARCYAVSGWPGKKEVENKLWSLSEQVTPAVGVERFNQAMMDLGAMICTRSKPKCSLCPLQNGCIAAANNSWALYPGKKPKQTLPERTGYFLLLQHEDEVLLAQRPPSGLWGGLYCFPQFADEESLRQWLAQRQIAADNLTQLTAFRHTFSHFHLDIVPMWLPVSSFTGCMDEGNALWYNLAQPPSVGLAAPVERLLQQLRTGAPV
Sequence of hOGG1 (O15527 whole entry): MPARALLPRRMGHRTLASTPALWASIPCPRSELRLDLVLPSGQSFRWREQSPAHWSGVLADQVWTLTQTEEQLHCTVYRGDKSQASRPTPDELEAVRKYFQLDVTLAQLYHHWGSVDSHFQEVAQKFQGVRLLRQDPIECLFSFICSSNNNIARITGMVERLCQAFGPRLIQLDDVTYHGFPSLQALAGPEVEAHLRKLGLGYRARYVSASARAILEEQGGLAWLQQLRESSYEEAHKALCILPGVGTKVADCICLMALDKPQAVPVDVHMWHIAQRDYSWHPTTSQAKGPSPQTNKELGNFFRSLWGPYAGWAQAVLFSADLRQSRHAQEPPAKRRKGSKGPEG

Structure (SMILES): Nc1nc(O)c(NC=O)c(NC2C[C@H](O)[C@@H](CO)O2)n1 (stereo partly drawn) [Fapy·dG, N6-(2-Deoxy-α,β-D-erythropentofuranosyl)-2,6-diamino-4-hydroxy-5-formamidopyrimidine]
- discrimination against a Fapy·dG:dA base pair (hOGG1): more than 40 fold
- incision of mismatched dA opposite Fapy·dG, more slowly than from a duplex containing 8-OxodGuo:dA (MutY): 4 fold
- efficiency of glycosidic bond hydrolysis of the lesion in a Fapy·dG:dC base pair relative to opposite dA (Fpg): ~20 times
